According to the supplement of paper PMC13207355:

Experiments:
Settings in all cases: exposure time: 72 h
E13 [1] = patient-derived glioblastoma stem cells of classical subtype; assay: surviving fraction (nuclei count normalised to DMSO); higher = more cells surviving (less toxic)
E21 [2] = patient-derived glioblastoma stem cells of mesenchymal subtype; assay: as above
E28 [3] = patient-derived glioblastoma stem cells of classical subtype; assay: as above
E31 [4] = patient-derived glioblastoma stem cells of proneural subtype; assay: as above
E34 [5] = patient-derived glioblastoma stem cells of proneural subtype; assay: as above
E57 [6] = patient-derived glioblastoma stem cells of mesenchymal subtype; assay: as above
FT3469 [7] = normal neural stem cell line; assay: as above
E13 [8] = assay: phenotypic distance (Euclidean, principal components) from DMSO controls (arbitrary units); higher = stronger morphological change
E21 [9] = assay: as above
E28 [10] = assay: as above
E31 [11] = assay: as above
E34 [12] = assay: as above
E57 [13] = assay: as above
FT3469 [14] = assay: as above
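Throughout, for phenotypic distance (Euclidean, principal components) from DMSO controls: cell Painting imaging in 384-well plates, CellProfiler features reduced to at least 20 principal components, Euclidean distance versus same-plate DMSO vehicle wells (0.1% v/v), median over six images per well.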
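Throughout, for surviving fraction (nuclei count normalised to DMSO): nuclei counted by high-content imaging of Hoechst-stained cells in laminin-coated 384-well plates, relative to 0.1% DMSO vehicle wells, with staurosporine as cell-death control.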

Cc1nc2ccccn2c(=O)c1CCN1CCC(C(=O)c2ccc(F)cc2)CC1 [Pirenperone]
Settings	phenotypic distance	surviving fraction
E13 [1], 4.1 nM	–	0.987
E13 [1], 12.3 nM	–	1.07
E13 [1], 37 nM	–	1.13
E13 [1], 111.1 nM	–	1.14
E13 [1], 333.3 nM	–	1.06
E13 [1], 1000 nM	–	1.02
E13 [1], 3000 nM	–	1.02
E13 [8], 4.1 nM	0.486	–
E13 [8], 12.3 nM	0.42	–
E13 [8], 37 nM	0.709	–
E13 [8], 111.1 nM	0.86	–
E13 [8], 333.3 nM	0.944	–
E13 [8], 1000 nM	0.709	–
E13 [8], 3000 nM	2.42	–
E21 [2], 4.1 nM	–	1.08
E21 [2], 12.3 nM	–	0.974
E21 [2], 37 nM	–	1.12
E21 [2], 111.1 nM	–	1.01
E21 [2], 333.3 nM	–	1.11
E21 [2], 1000 nM	–	1.12
E21 [2], 3000 nM	–	0.984
E21 [9], 4.1 nM	1	–
E21 [9], 12.3 nM	0.656	–
E21 [9], 37 nM	0.874	–
E21 [9], 111.1 nM	0.825	–
E21 [9], 333.3 nM	0.769	–
E21 [9], 1000 nM	0.729	–
E21 [9], 3000 nM	0.884	–
E28 [3], 4.1 nM	–	1.05
E28 [3], 12.3 nM	–	0.977
E28 [3], 37 nM	–	1.16
E28 [3], 111.1 nM	–	0.995
E28 [3], 333.3 nM	–	1.08
E28 [3], 1000 nM	–	1.07
E28 [3], 3000 nM	–	0.988
E28 [10], 4.1 nM	0.892	–
E28 [10], 12.3 nM	0.572	–
E28 [10], 37 nM	0.636	–
E28 [10], 111.1 nM	0.966	–
E28 [10], 333.3 nM	0.52	–
E28 [10], 1000 nM	0.489	–
E28 [10], 3000 nM	0.806	–
E31 [4], 4.1 nM	–	1.02
E31 [4], 12.3 nM	–	0.878
E31 [4], 37 nM	–	0.945
E31 [4], 111.1 nM	–	0.874
E31 [4], 333.3 nM	–	0.886
E31 [4], 1000 nM	–	0.857
E31 [4], 3000 nM	–	0.912
E31 [11], 4.1 nM	0.618	–
E31 [11], 12.3 nM	0.402	–
E31 [11], 37 nM	0.608	–
E31 [11], 111.1 nM	0.551	–
E31 [11], 333.3 nM	0.266	–
E31 [11], 1000 nM	0.44	–
E31 [11], 3000 nM	0.761	–
E34 [5], 4.1 nM	–	1.22
E34 [5], 12.3 nM	–	1.22
E34 [5], 37 nM	–	1.06
E34 [5], 111.1 nM	–	0.912
E34 [5], 333.3 nM	–	0.91
E34 [5], 1000 nM	–	1.01
E34 [5], 3000 nM	–	1.15
E34 [12], 4.1 nM	0.796	–
E34 [12], 12.3 nM	0.78	–
E34 [12], 37 nM	0.668	–
E34 [12], 111.1 nM	0.579	–
E34 [12], 333.3 nM	0.636	–
E34 [12], 1000 nM	0.719	–
E34 [12], 3000 nM	0.659	–
E57 [6], 4.1 nM	–	1.07
E57 [6], 12.3 nM	–	1.08
E57 [6], 37 nM	–	1.08
E57 [6], 111.1 nM	–	1.02
E57 [6], 333.3 nM	–	1.03
E57 [6], 1000 nM	–	1.03
E57 [6], 3000 nM	–	0.881
E57 [13], 4.1 nM	0.572	–
E57 [13], 12.3 nM	0.766	–
E57 [13], 37 nM	2.84	–
E57 [13], 111.1 nM	0.668	–
E57 [13], 333.3 nM	0.553	–
E57 [13], 1000 nM	0.431	–
E57 [13], 3000 nM	1.17	–
FT3469 [7], 4.1 nM	–	0.92
FT3469 [7], 12.3 nM	–	0.976
FT3469 [7], 37 nM	–	1.17
FT3469 [7], 111.1 nM	–	1.11
FT3469 [7], 333.3 nM	–	1.12
FT3469 [7], 1000 nM	–	1.05
FT3469 [7], 3000 nM	–	1.19
FT3469 [14], 4.1 nM	0.618	–
FT3469 [14], 12.3 nM	0.837	–
FT3469 [14], 37 nM	0.619	–
FT3469 [14], 111.1 nM	0.898	–
FT3469 [14], 333.3 nM	0.764	–
FT3469 [14], 1000 nM	0.995	–
FT3469 [14], 3000 nM	1.03	–
